According to paper PMC12426469, “A Covalent and Modulable Inhibitor of the Tubulin‐Microtubule System: Insights Into the Mechanism of Cacalol” (Chemical Biology & Drug Design, 2025):

Biological target: T1, α-tubulin (Sus scrofa, UniProt P02550)
T1 construct: gene TUBA1A; purified porcine brain α,β-tubulin; modified peptide 340SIQFVDWCPTGFK352 of α-tubulin; with β-tubulin
Test: LC-MS of trypsin-digested tubulin showing covalent adduct; IC50 from in vitro tubulin polymerization assay
Format: biochemical

T1 sequence (P02550 whole entry): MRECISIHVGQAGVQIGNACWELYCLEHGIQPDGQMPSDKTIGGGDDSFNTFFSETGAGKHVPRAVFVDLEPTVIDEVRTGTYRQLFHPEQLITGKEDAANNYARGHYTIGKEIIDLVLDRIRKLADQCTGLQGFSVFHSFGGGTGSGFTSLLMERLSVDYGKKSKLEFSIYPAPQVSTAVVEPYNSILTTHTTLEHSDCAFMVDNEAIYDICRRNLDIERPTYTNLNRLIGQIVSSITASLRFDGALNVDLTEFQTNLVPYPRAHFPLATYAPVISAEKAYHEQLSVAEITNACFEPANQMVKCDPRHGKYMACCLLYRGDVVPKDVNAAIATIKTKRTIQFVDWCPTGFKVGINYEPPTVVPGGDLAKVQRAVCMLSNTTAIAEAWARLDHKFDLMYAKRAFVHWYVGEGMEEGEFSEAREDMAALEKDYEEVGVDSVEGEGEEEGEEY
T1 sequence (P02554 whole entry partner): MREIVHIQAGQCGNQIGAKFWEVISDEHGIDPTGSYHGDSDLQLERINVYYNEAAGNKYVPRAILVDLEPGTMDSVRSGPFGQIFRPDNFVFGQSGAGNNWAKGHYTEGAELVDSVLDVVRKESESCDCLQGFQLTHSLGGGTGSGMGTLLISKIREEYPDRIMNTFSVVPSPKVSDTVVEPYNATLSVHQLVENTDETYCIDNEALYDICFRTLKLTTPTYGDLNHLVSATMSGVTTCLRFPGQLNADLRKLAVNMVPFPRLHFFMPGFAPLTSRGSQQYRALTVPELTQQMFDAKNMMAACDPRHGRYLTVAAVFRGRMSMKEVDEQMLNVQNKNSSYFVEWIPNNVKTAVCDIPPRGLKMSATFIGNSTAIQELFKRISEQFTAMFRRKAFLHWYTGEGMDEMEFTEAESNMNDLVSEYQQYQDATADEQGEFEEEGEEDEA

IC50: 43 µM
Compound: C=C1C2=C(CCC[C@@H]2C)C(=O)c2occ(C)c21 [compound 2, (S)‐3,5‐Dimethyl‐4‐Methylene‐5,6,7,8‐Tetrahydronaphtho[2,3‐b]Furan‐9(4H )‐One]
